Results: patent publication US7977120B2, “Fluorescent sensors for cellular amines” (The Curators of the University of Missouri, priority 2005, dated 2011)

What was measured:
[1] = system: norepinephrine-enriched chromaffin cells; assay: Staining norepinephrine-enriched chromaffin cells with Sensor IIb; assay type: cell-based; details: 0.25 μM, 15 minutes, 37 C, confocal microscopy; compared with epinephrine-enriched cells
Source text: (§1) The adrenal medulla contains two types of chromaffin cells; those that primarily contain norepinephrine within vesicles and those that primarily contain epinephrine. The two types of cells can be separated upon high-speed centrifugation in a Percoll density gradient. Following centrifugation, the less-dense norepinephrine enriched cells can be collected from the top of the gradient, whereas the denser epinephrine-enriched cells settle to the bottom.
(§2) Following centrifugation of adrenal medullary cells in a Percoll density gradient, the less-dense norepinephrine enriched cells were collected from the top of the gradient, whereas the denser epinephrine-enriched cells were collected from the bottom of the gradient. Both collections of cells were incubated for 15 minutes at 37 C in 0.25 μM IIb dissolved in cell culture media. The cells were then washed in dye-free media and observed using a confocal microscope at room temperature.
(§3) Because it is possible to separate chromaffin cells into populations which contain epinephrine and norepinephrine, these cells were used to test sensor 76.

[2] = system: epinephrine-enriched chromaffin cells; assay: Staining epinephrine-enriched chromaffin cells with Sensor IIb; assay type: cell-based; details: identical conditions as norepinephrine cells
Source text: as §1, §2, §3

[3] = UV-vis absorption / fluorescence titration of sensor Ia with dopamine; assay type: binding; details: excited at 484 nm, FIG. 8
Source text: First, the sensors I produce a large chromophoric response when reacting with primary amines under physiological conditions. One exemplary coumarin-based sensor, 2-(((5-(7-(diethylamino)-3-formyl-2-oxo-2H-chromen-4-yl)pentyl)(methyl)amino)methyl)phenylboronic acid, sensor Ia, has been examined spectrophotometrically by titration with dopamine under neutral aqueous conditions in which a reducing agent is included to suppress oxidation of the air-sensitive catechol group.
The titration conditions are 10 μM sensor Ia with 100 mM Na2S2O3, 50 mM HEPES, 20 mM NaCl, pH=7.0, and at 37° C. […] Therefore, the inventive coumarin-based sensors I are selective for primary amines. See also, Org. Lett. 2004, 6(21), 3727-3730, which is incorporated herein by reference.
Table 2 also lists the fluorescence response of the sensor Ia as Isat/I0 (the maximum fluorescence change at saturation) for three different excitation wavelengths: 446 nm, 484 nm, and 495 nm. By exciting sensor Ia at the aldehyde absorption maximum (446 nm), a decrease in fluorescence has been observed for all analytes because the sensor shifted from the aldehyde to the iminium ion form. At higher wavelengths of excitation, simple amines give the typical large increase in fluorescence since the iminium ion preferentially absorbs at these wavelengths. […] The fluorescence quenching effect is found to be directly related to the catechol group. […]

[4] = Fluorescence titration of quinolone sensors with lysine; assay type: binding; details: Table 3
Source text: (§4) The present invention further discloses that the Quinolone-Dimer Sensors III can also provide detection for diamine analytes. The certain exemplary dimer sensors IIIa-g have been probed spectroscopically by UV-vis and fluorescence titration experiments. […] Moreover, by variation of the linker portion of the sensor III, useful selectivities for different length diamino-analytes have been achieved.
(§5) First, the absorption spectra show trends similar to those observed with the coumarin sensors in which a large red shift in absorption maximum is observed upon addition of diamines to the sensors. […] As shown in FIG. 11(a), when sensor IIIg is titrated with diaminopropane, a 28 nm shift in absorbance is observed consistent with a shift from aldehyde to iminium ion forms. The red shift in absorption has been attributed to the hydrogen bond between the formed iminium ion and the carbonyl group of the chromophore. In fluorescence mode, by exciting the chromophore at 495 nm, a large increase in fluorescence was observed upon titration with the diamine (FIG. 11(b)). The fluorescence increase is fitted to a one-site binding isotherm which gave a binding constant of 6700 M^−1 with a maximum fluorescence increase at saturation (Isat/I0) of 6.6-fold.
(§6) Generally, the dimeric sensors were not as soluble as the monomeric derivatives, so binding studies were performed in 1:1 methanol:buffer (10 mM HEPES, pH=7.4). Water solubilizing groups, such as polyethylene groups, can be provided on the quinolone core in a straightforward synthetic manner. Binding constants and maximum fluorescence changes (Isat/I0) are provided in Table 4 for a few representative guests.

[5] = Relative affinity of dimer sensors across amine guests; assay type: binding
Source text: The certain exemplary dimer sensors IIIa-g have been probed spectroscopically by UV-vis and fluorescence titration experiments.
Water solubilizing groups, such as polyethylene groups, can be provided on the quinolone core in a straightforward synthetic manner. Binding constants and maximum fluorescence changes (Isat/I0) are provided in Table 4 for a few representative guests.

[6] = Fluorescence titration of quinolone sensors with diaminobutane; assay type: binding; details: Table 3
Source text: (§7) The present invention further discloses that the Quinolone-Dimer Sensors III can also provide detection for diamine analytes. The certain exemplary dimer sensors IIIa-g have been probed spectroscopically by UV-vis and fluorescence titration experiments. […] Moreover, by variation of the linker portion of the sensor III, useful selectivities for different length diamino-analytes have been achieved. First, the absorption spectra show trends similar to those observed with the coumarin sensors in which a large red shift in absorption maximum is observed upon addition of diamines to the sensors. […] As shown in FIG. 11(a), when sensor IIIg is titrated with diaminopropane, a 28 nm shift in absorbance is observed consistent with a shift from aldehyde to iminium ion forms. The red shift in absorption has been attributed to the hydrogen bond between the formed iminium ion and the carbonyl group of the chromophore. In fluorescence mode, by exciting the chromophore at 495 nm, a large increase in fluorescence was observed upon titration with the diamine (FIG. 11(b)).

[7] = Fluorescence titration of quinolone sensors with butylamine; assay type: binding; details: Table 3
[8] = UV-vis and fluorescence titration of quinolone sensors with diaminopropane; assay type: binding
Source text: as §4, §5, §6

[9] = Fluorescence titration of quinolone sensors with ornithine; assay type: binding; details: Table 3
Source text: as §7

[10] = Fluorescence titration of quinolone sensors with diaminopentane; assay type: binding; details: Table 3
Source text: as §7

Compound: CN(CCCSc1c(C=O)c(=O)n(Cc2ccccc2)c2cc(N(C)C)ccc12)Cc1ccccc1B(O)O [Sensor IIb]
- staining of norepinephrine-enriched cells [1]: stained brightly
- staining of epinephrine-containing cells [2]: did not stain well

Compound: CCN(CC)c1ccc2c(CCCCCN(C)Cc3ccccc3B(O)O)c(C=O)c(=O)oc2c1 [Sensor Ia, 2-(((5-(7-(diethylamino)-3-formyl-2-oxo-2H-chromen-4-yl)pentyl)(methyl)amino)methyl)phenylboronic acid]
- fluorescence on binding dopamine [3]: quenched upon binding dopamine

Compound: CN(C)c1ccc2c(SCCCCCSc3c(C=O)c(=O)n(Cc4ccccc4)c4cc(N(C)C)ccc34)c(C=O)c(=O)n(Cc3ccccc3)c2c1 [Sensor IIIg]
- Isat/I0, Lysine [4]: 27
- Ka, Lysine ([4]; 1:1 methanol-buffer): 2756 M⁻¹
- guest selectivity (in words) ([5]; comparison of guests, Tables 3 and 4): the preferred guest in both cases is lysine
- extent of the difference, diamines bind better than butyl amine ([5]; ratio of binding constants, Table 3): 160 fold
- Isat/I0, Diaminobutane [6]: 27
- Ka, Diaminobutane ([6]; 1:1 methanol-buffer): 1477 M⁻¹
- Ka, Butylamine ([7]; 1:1 methanol-buffer, error ±20%, duplicate titrations): 43 M⁻¹
- Isat/I0, Butylamine ([7]; maximum change in fluorescence from theoretical fit): 38
- Isat/I0, Diaminopropane ([8]; Table 3): 6.6
- Ka, Diaminopropane ([8]; Table 3, 1:1 methanol-buffer, excitation 495 nm): 6700 M⁻¹
- maximum fluorescence increase at saturation (Isat/I0) ([8]; excitation 495 nm, one-site binding isotherm, FIG. 11(b)): 6.6 fold
- Isat/I0, Ornithine [9]: 20
- Ka, Ornithine ([9]; 1:1 methanol-buffer): 2400 M⁻¹
- Isat/I0, Diaminopentane [10]: 18
- Ka, Diaminopentane ([10]; 1:1 methanol-buffer): 2200 M⁻¹
